Data published in US20140171448A1, “USE OF NICOTINIC ACETYLCHOLINE RECEPTOR ALPHA 7 ACTIVATORS” (NOVARTIS AG, priority 2011, published 2014).

Key:
[1] = target: T1, human neuronal nAChR α4β2 (Homo sapiens, UniProt P17787+P43681); assay: α4β2-nAChR functional assay in human epithelial cell line; type: cell-based
T1 construct: expressed in transfected cells; host or cells: human epithelial cell line (named a human embryonic kidney cell line)
Method: To assess the activity of the compound of the invention on the human neuronal nAChR α4β2, a similar functional assay is carried out using a human epithelial cell line stably expressing the human α4β2 subtype (Michelmore et al., Naunyn-Schmiedeberg's Arch.

[2] = Oral bioavailability and brain penetration in mice; type: in vivo; conditions: 30 μmol/kg p.o.
Method: Compounds were orally (30 μmol/kg) administered. Male mice (30-35g, OF1/ICstrain) were sacrificed at indicated time points after oral administration. Trunk-blood was collected in EDTA-containing tubes and the brain was removed and immediately frozen on dry ice.
To 100 μl plasma 10 μl internal standard (1.0 pmol of a compound with solubility and ionization properties similar to test compounds) was added and extracted three times with 500 μl dichloromethane. The combined extracts were then dried under a stream of nitrogen and re-dissolved in 100 μl acetonitrile/water (70% acetonitrile). Brains were weighed and homogenized in water (1:5 w/v). Two 100 μl aliquots of each homogenate+10 μl of internal standard (same standard as used for the plasma samples) were extracted three times with 500 μl dichloromethane and further processed as the plasma samples. Samples were separated on Beckmann high-performance liquid chromatography equipment system with an autosampler (Gilson 233XL).
The limit of detection (LOD), defined as the lowest concentration of the extracted standard sample with a signal to noise ratio of ˜3.

parkinsonian primates = assay: Antidyskinetic effect in parkinsonian primates (MPTP, levodopa-induced dyskinesia); type: in vivo, cynomolgus monkeys (Macaca fascicularis); conditions: with levodopa
Method: Female ovariectomized cynomolgus monkeys (Macaca fascicularis) are used in the assessment. The animals can be rendered parkinsonian by continuous infusion of 1-methyl-4-phenyl-1,2,3,6-tetrahydropyridine (MPTP) until they develop a stable parkinsonian syndrome. After recuperation, animals are treated daily with levodopa until clear and reproducible dyskinesias are developed.
Monkeys are observed through a one-way screen window in their home cage. They are observed and scored repeatedly at baseline and after a standard s.c. dose of levodopa. Locomotor activity is assessed and followed with an electronic monitoring system. Antiparkinsonian responses are evaluated by measuring the locomotor activity and a Parkinson disability scale (see Hadj Tahar A et al, Clin Neuropharmacol 2000; 23:195-202; and Samadi P et al, Neuropharmacology 2003; 45:954-963). Dyskinesias are closely monitored and scored according to a dyskinesia rating scale (also described in Hadj Tahar A et al; and Samadi P et al) every 15 minutes until the end of the effect. The doses of levodopa are chosen to induce motor activation and reproducible dyskinesia but no excessive agitation.
Monkeys are observed for at least two hours following an oral administration of vehicle. On a subsequent day, the dose of levodopa selected is tested once. The animals are observed (with measures of parkinsonian and dyskinetic scores) for the entire duration of the levodopa effect and are also monitored for locomotor activity. This provides vehicle control values as well as levodopa antiparkinsonian and dyskinesia response data for comparison with combinations of a α7-nAChR agonist/positive allosteric modulator and levodopa. The monkeys are then tested with a α7-nAChR agonist/positive allosteric modulator in combination with a fixed dose of levodopa. A suspension for oral administration of the α7-nAChR agonist/positive allosteric modulator is administered before levodopa. After each dose, the animals are observed (with measures of parkinsonian and dyskinetic scores) for the entire duration of effect and monitored for locomotor activity or any change in behavior (e.g. circling, excitement, lethargy and sleepiness).
Using this protocol, compound A-1 at a dose of 20 mg/kg was tested. Results based on five monkeys (levodopa/benserazide doses: 22.5/50 mg; 65/50 mg; 30/50 mg; 35/50 mg; and 25/50 mg) are shown in FIGS. 1-4.

T1 sequence (P43681 29-627 limits assumed): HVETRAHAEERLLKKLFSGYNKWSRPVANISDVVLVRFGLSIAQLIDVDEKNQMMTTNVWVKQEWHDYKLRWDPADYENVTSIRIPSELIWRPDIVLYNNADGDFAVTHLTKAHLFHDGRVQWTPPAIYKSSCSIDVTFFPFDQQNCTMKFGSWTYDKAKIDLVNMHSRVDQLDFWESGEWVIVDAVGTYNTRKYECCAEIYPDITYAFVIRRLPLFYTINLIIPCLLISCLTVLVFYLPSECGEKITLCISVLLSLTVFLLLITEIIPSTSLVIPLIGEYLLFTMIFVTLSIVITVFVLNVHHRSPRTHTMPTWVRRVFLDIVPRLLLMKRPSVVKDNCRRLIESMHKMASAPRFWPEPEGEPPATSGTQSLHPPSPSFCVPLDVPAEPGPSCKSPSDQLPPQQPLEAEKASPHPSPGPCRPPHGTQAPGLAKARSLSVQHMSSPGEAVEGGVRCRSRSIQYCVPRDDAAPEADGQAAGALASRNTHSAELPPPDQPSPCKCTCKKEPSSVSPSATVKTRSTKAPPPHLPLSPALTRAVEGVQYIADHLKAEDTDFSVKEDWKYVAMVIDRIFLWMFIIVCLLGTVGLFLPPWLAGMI
T1 sequence (P17787 26-502): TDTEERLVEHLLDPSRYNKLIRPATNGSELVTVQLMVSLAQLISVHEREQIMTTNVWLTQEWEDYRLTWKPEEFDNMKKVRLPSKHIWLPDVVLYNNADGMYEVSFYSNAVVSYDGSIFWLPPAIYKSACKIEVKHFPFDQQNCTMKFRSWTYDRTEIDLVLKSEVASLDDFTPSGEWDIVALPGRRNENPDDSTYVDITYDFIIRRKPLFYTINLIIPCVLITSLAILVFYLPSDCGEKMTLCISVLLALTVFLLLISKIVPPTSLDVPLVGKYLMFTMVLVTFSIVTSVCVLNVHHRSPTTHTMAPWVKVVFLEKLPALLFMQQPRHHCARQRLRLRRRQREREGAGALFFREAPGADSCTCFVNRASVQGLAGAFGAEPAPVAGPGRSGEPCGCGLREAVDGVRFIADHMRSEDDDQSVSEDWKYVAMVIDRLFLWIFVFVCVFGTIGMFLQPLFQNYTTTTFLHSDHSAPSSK

C[C@H](OC(=O)N[C@@H]1CN2CCC1CC2)c1ccccc1F [A-1, (S)-(1-aza-bicyclo[2.2.2]oct-3-yl)-carbamic acid (S)-1-(2-fluoro-phenyl)-ethyl ester]
EC50 [1]: > 100 µM
Brain (pmoles/g ± SD) ([2]; 4 hour): 101.6 ± 39.6 pmol/g
concentration at 0.5 h ([2]; male, OF1/IC, mouse, plasma, po, 0.5 hour, read-out: Plasma (pmoles/ml ± SD)): 635 ± 261 pmol/mL
concentration at 1 h ([2]; male, OF1/IC, mouse, plasma, po, 1 hour, read-out: Plasma (pmoles/ml ± SD)): 685 ± 340 pmol/mL
concentration at 2 h ([2]; male, OF1/IC, mouse, plasma, po, 2 hour, read-out: Plasma (pmoles/ml ± SD)): 168 ± 91.3 pmol/mL
concentration at 4 h ([2]; male, OF1/IC, mouse, plasma, po, 4 hour, read-out: Plasma (pmoles/ml ± SD)): 85 ± 54.3 pmol/mL
concentration at 6 h ([2]; male, OF1/IC, mouse, plasma, po, 6 hour, read-out: Plasma (pmoles/ml ± SD)): 29.5 ± 13.8 pmol/mL
concentration at 24 h ([2]; male, OF1/IC, mouse, plasma, po, 24 hour, read-out: Plasma (pmoles/ml ± SD)): 3.8 ± 0.6 pmol/mL
effect on antiparkinsonian activity of levodopa (parkinsonian primates): does not lower the antiparkinsonian activity of levodopa
effect on duration of the antiparkinsonian activity of levodopa (parkinsonian primates): significantly increases the duration of the antiparkinsonian activity seen for levodopa administration
effect on levodopa-induced dyskinesia (parkinsonian primates): significantly reduces levodopa-induced dyskinesia
effect on onset of action of levodopa (parkinsonian primates): does not delay the onset of action of levodopa
